Here are results for 18 compounds from patent US20210101928A1 (Sage Therapeutics, Inc., priority 2017, published 2021).

Read-outs that look alike come from different tables or passages of the source.

In the experiment the target is GABAA receptor ([35S]-TBPS binding, rat brain cortical membranes). The experiment can be described thus: Steroid inhibition of [35S]-TBPS binding. To be noted: in the presence of 5 mM GABA, read-out: TBPS IC50. As to the method: [^35S]-t-Butylbicyclophosphorothionate (TBPS) binding assays using rat brain cortical membranes in the presence of 5 mM GABA has been described (Gee et al, J. Pharmacol. Exp. Ther. 1987, 241, 346-353; Hawkinson et al, Mol. Pharmacol. 1994, 46, 977-985; Lewin, A. H et al., Mol. Pharmacol. 1989, 35, 189-194).
Briefly, cortices are rapidly removed following decapitation of carbon dioxide-anesthetized Sprague-Dawley rats (200-250 g). The cortices are homogenized in 10 volumes of ice-cold 0.32 M sucrose using a glass/teflon homogenizer and centrifuged at 1500×g for 10 min at 4° C. The resultant supernatants are centrifuged at 10,000×g for 20 min at 4° C. to obtain the P2 pellets. The P2 pellets are resuspended in 200 mM NaCl/50 mM Na—K phosphate pH 7.4 buffer and centrifuged at 10,000×g for 10 min at 4° C. This washing procedure is repeated twice and the pellets are resuspended in 10 volumes of buffer. Aliquots ([…]) of the membrane suspensions are incubated with 3 nM [^35S]-TBPS and […] aliquots of test drug dissolved in dimethyl sulfoxide (DMSO) (final 0.5%) in the presence of 5 mM GABA. The incubation is brought to a final volume of 1.0 mL with buffer. Nonspecific binding is determined in the presence of […] and ranged from 15 to 25%. Following a 90 min incubation at room temp, the assays are terminated by filtration through glass fiber filters (Schleicher and Schuell No. 32) using a cell harvester (Brandel) and rinsed three times with ice-cold buffer. Filter bound radioactivity is measured by liquid scintillation spectrometry. Non-linear curve fitting of the overall data for each drug averaged for each concentration is done using Prism (GraphPad). […] The concentration of test compound producing 50% inhibition (IC50) of specific binding and the maximal extent of inhibition (Imax) are determined for the individual experiments with the same model used for the overall data and then the means±SEM.s of the individual experiments are calculated.
Various compounds are or can be screened to determine their potential as modulators of [^35S]-TBPS binding in vitro. These assays are or can be performed in accordance with the above.

Setting [1] is: Table III-1 (biological data), 3 nM [35S]-TBPS.

For `CC[C@]12CC[C@@](C)(O)C[C@@H]1CC[C@H]1[C@@H]3CC[C@H](C(=O)Cn4nccn4)[C@@]3(C)CC[C@@H]12` [II-A8a], for the setting “Table II-2, 3 nM [35S]-TBPS”, the IC50 is 0.01 to 0.1 µM.

As to `CC[C@]12CC[C@@](C)(O)C[C@@H]1CC[C@H]1[C@@H]3CC[C@H](C(=O)CN4CCOCC4)[C@@]3(C)CC[C@@H]12` [II-A9, 1-((3R,5S,8S,9S,10S,13S,14S,17S)-10-ethyl-3-hydroxy-3,13-dimethylhexadecahydro-1H-cyclopenta[a]phenanthren-17-yl)-2-morpholinoethan-1-one], the IC50 (Table II-2, 3 nM [35S]-TBPS) was in the range of 0.01 to 0.1 µM.

As for `CC[C@]12CC[C@@](C)(O)C[C@@H]1CC[C@H]1[C@@H]3CC[C@H](C(=O)CN4CCN(S(C)(=O)=O)CC4)[C@@]3(C)CC[C@@H]12` [II-A10, 1-((3R,5S,8S,9S,10S,13S,14S,17S)-10-ethyl-3-hydroxy-3,13-dimethylhexadecahydro-1H-cyclopenta [a]phenanthren-17-yl)-2-(4-(methylsulfonyl)piperazin-1-yl)ethan-1-one], the IC50 (Table II-2, 3 nM [35S]-TBPS) is 0.01 to 0.1 µM. For `CC[C@]12CC[C@@](C)(O)C[C@@H]1CC[C@H]1[C@@H]3CC[C@H](C(=O)CO)[C@@]3(C)CC[C@@H]12` [II-A11, 1-((3R,5S,8S,9S,10S,13S,14S,17S)-10-ethyl-3-hydroxy-3,13-dimethylhexadecahydro-1H-cyclopenta[a]phenanthren-17-yl)-2-hydroxyethan-1-one], the IC50 (Table II-2, 3 nM [35S]-TBPS) fell in the range of 0.01 to 0.1 µM. `CC[C@]12CC[C@](O)(COC)C[C@H]1CC[C@H]1[C@@H]3CC[C@H](C(=O)N4CCCC[C@@H]4C)[C@@]3(C)CC[C@@H]12` [II-B11, ((3R,5R,8S,9S,10S,13S,14S,17S)-10-ethyl-3-hydroxy-3-(methoxymethyl)-13-methylhexadecahydro-1H-cyclopenta[a]phenanthren-17-yl)((S)-2-methylpiperidin-1-yl)methanone]: where the note is “Table II-2, 3 nM [35S]-TBPS”, the IC50 fell in the range of 0.01 to 0.1 µM.

Take `CCOC[C@@]1(O)CC[C@@]2(CC)[C@H](CC[C@H]3[C@@H]4CC[C@H](C(C)=O)[C@@]4(C)CC[C@@H]32)C1` [II-C4, 1-((3R,5R,8S,9S,10S,13S,14S,17S)-3-(ethoxymethyl)-10-ethyl-3-hydroxy-13-methylhexadecahydro-1H-cyclopenta[a]phenanthren-17-yl)ethan-1-one]: where the note is “Table II-2, 3 nM [35S]-TBPS”, the IC50 fell in the range of 0.01 to 0.1 µM. Same read-out and setting: to `CCOC[C@@]1(O)CC[C@@]2(CC)[C@H](CC[C@H]3[C@@H]4CC[C@H](C(=O)Cn5cc(C#N)cn5)[C@@]4(C)CC[C@@H]32)C1` [II-C8, 1-(2-((3R,5R,8S,9S,10S,13S,14S,17S)-3-(ethoxymethyl)-10-ethyl-3-hydroxy-13-methylhexadecahydro-1H-cyclopenta[a]phenanthren-17-yl)-2-oxoethyl)-1H-pyrazole-4-carbonitrile] belongs less than 0.01 µM. Same read-out and setting: to `CCOC[C@@]1(O)CC[C@@]2(CC)[C@@H](CC[C@H]3[C@@H]4CC[C@H](C(C)=O)[C@@]4(C)CC[C@@H]32)C1` [II-D9] belongs 0.01 to 0.1 µM. On the same count and under the same terms, the value for `CCOC[C@@]1(O)CC[C@@]2(CC)[C@@H](CC[C@H]3[C@@H]4CC[C@H](C(=O)N5CCCC[C@@H]5C)[C@@]4(C)CC[C@@H]32)C1` [II-D11, ((3R,5S,8S,9S,10S,13S,14S,17S)-3-(ethoxymethyl)-10-ethyl-3-hydroxy-13-methylhexadecahydro-1H-cyclopenta[a]phenanthren-17-yl)((S)-2-methylpiperidin-1-yl)methanone] was 0.1 to 1 µM; that for `CCOC[C@@]1(O)CC[C@@]2(CC)[C@@H](CC[C@H]3[C@@H]4CC[C@H](C(=O)Cn5ccc(C#N)n5)[C@@]4(C)CC[C@@H]32)C1` [II-D13, 1-(2-((3R,5S,8S,9S,10S,13S,14S,17S)-3-(ethoxymethyl)-10-ethyl-3-hydroxy-13-methylhexadecahydro-1H-cyclopenta[a]phenanthren-17-yl)-2-oxoethyl)-1H-pyrazole-3-carbonitrile] was 0.01 to 0.1 µM. As to `CC[C@]12CC[C@](O)(COC)C[C@@H]1CC[C@H]1[C@@H]3CC[C@H](C(=O)Nc4ccc(C#N)cc4C)[C@@]3(C)CC[C@@H]12` [II-E6, (3R,5S,8S,9S,10S,13S,14S,17S)-N-(4-cyano-2-methylphenyl)-10-ethyl-3-hydroxy-3-(methoxymethyl)-13-methylhexadecahydro-1H-cyclopenta[a]phenanthrene-17-carboxamide], where the note is “Table II-2, 3 nM [35S]-TBPS”, the IC50 is less than 0.01 µM. Still for that read-out and setting: the value for `CC[C@]12CC[C@](O)(COC)C[C@@H]1CC[C@H]1[C@@H]3CC[C@H](C(=O)Cn4ccc(C#N)n4)[C@@]3(C)CC[C@@H]12` [II-E8, 1-(2-((3R,5S,8S,9S,10S,13S,14S,17S)-10-ethyl-3-hydroxy-3-(methoxymethyl)-13-methylhexadecahydro-1H-cyclopenta[a]phenanthren-17-yl)-2-oxoethyl)-1H-pyrazole-3-carbonitrile] was less than 0.01 µM; that for `CO[C@H](C)[C@]12CC[C@@](C)(O)C[C@H]1CC[C@H]1[C@@H]3CC[C@H](C(=O)Cn4nnnc4C)[C@@]3(C)CC[C@@H]12` [II-E13, 1-((3R,5R,8S,9S,10R,13S,14S,17S)-3-hydroxy-10-((R)-1-methoxyethyl)-3,13-dimethylhexadecahydro-1H-cyclopenta[a]phenanthren-17-yl)-2-(5-methyl-1H-tetrazol-1-yl)ethan-1-one] was 0.1 to 1 µM. Turning to `CC[C@]12CC[C@@](C)(O)C[C@H]1CC[C@H]1[C@@H]3CC[C@H](C(=O)Nc4ccccc4)[C@@]3(C)CC[C@@H]12` [II-G3, (3R,5R,8S,9S,10S,13S,14S,17S)-10-ethyl-3-hydroxy-3,13-dimethyl-N-phenylhexadecahydro-1H-cyclopenta Ialphenanthrene-17-carboxamide], for the setting “Table II-2, 3 nM [35S]-TBPS”, the IC50 is less than 0.01 µM. On to `CC[C@]12CC[C@@](C)(O)C[C@H]1CC[C@H]1[C@@H]3CC[C@H](C(=O)c4ccccc4C)[C@@]3(C)CC[C@@H]12` [II-G5, ((3R,5R,8S,9S,10S,13S,14S,17S)-10-ethyl-3-hydroxy-3,13-dimethylhexadecahydro-1H-cyclopenta [a]phenanthren-17-yl)(o-tolyl)methanone], for which, for the setting “Table II-2, 3 nM [35S]-TBPS”, the IC50 was 0.01 to 0.1 µM. In the case of `CC[C@]12CC[C@H]3[C@@H](CC[C@@H]4C[C@](C)(O)CC[C@@H]43)[C@@H]1CC[C@@H]2C(=O)Cn1cc(C#N)cn1` [III-A10, 1-(2-((3R,5R,8R,9R,10S,13S,14S,17S)-13-ethyl-3-hydroxy-3-methylhexadecahydro-1H-cyclopenta[a]phenanthren-17-yl)-2-oxoethyl)-1H-pyrazole-4-carbonitrile], under setting [1], the IC50 was less than 0.01 µM. The same measure, in the same setting: the value for `CC[C@]12CC[C@H]3[C@@H](CC[C@H]4C[C@@](O)(COC)CC[C@@H]43)[C@@H]1CC[C@@H]2C(C)=O` [III-A20, 1-((3R,5S,8R,9R,10S,13S,14S,17S)-13-ethyl-3-hydroxy-3-(methoxymethyl)hexadecahydro-1H-cyclopenta [a]phenanthren-17-yl)ethan-1-one] was 0.01 to 0.1 µM. Still for that read-out and setting: the value for `CC[C@]12CC[C@H]3[C@@H](CC[C@H]4C[C@@](O)(COC)CC[C@@H]43)[C@@H]1CC[C@@H]2C(=O)Cn1nnc(C)n1` [III-A22, 1-((3R,5S,8R,9R,10S,13S,14S,17S)-13-ethyl-3-hydroxy-3-(methoxymethyl)hexadecahydro-1H-cyclopenta [a]phenanthren-17-yl)-2-(5-methyl-2H-tetrazol-2-yl)ethan-1-one] was less than 0.01 µM.

The IC50 is the concentration needed to halve the response being measured.
